Data on two compounds can be found in US20250297323A1, “METHODS OF USING LONG NON-CODING RNA-8 (TROLL-8) AS A TARGET FOR CANCER DETECTION AND TREATMENT” (H. LEE MOFFITT CANCER CENTER AND RESEARCH INSTITUTE, INC., priority 2022, published 2025).

Molecules are shown by their SMILES.

Test [1] relates to CA1D cells. The test is described as follows: Seahorse XF Cell Mito Stress Test (oxygen consumption rate). Conditions: siTROLL-8 vs siNT CA1D cells; OCR normalized to groups without inhibitor; Etomoxir 4.0 μM, UK5099 2.0 μM, BPTES 3.0 μM. The format is cell-based, human. The protocol:
The oxygen consumption rate (OCR) of cells was measured on the Seahorse XF96 extracellular flux analyzer (Agilent Technologies) using a Seahorse XF Cell Mito Stress Test kit in accordance with the manufacturer's instructions. Briefly, siNT or siTROLL-8 CA1D cells (3.0×10^4 cells/well) were seeded in 6 wells (technical replicates) of a 96 well Agilent Seahorse XF Cell Culture Microplate in full growth medium and attached overnight. Hydrate a sensor cartridge in Seahorse XF Calibrant in a non-CO2 incubator at 37° C. overnight. On the day of assay, cells were carefully washed and the growth medium was replaced with prewarmed Seahorse XF base medium (Agilent Technologies) supplemented with 5 mM HEPES, 10 mM glucose, 1 mM sodium pyruvate, and 2 mM L-Glutamine, pH 7.4). The plates of cells in assay medium were incubated in a non-CO2 incubator at 37° C. for 1 h. Prepare compound stock solutions for loading sensor cartridge ports and load the XF96 sensor cartridge to Seahorse XF96 analyzer. Take three basal measurements and determine oxygen and proton concentration in the medium. […]

Test [2] concerns CPT1A. The test is described as follows: LC-MS of carnitine and fatty acyl-carnitine to reflect CPT1A activity. The format is cell-based, human. The protocol: 1.5×10^6 CA1D cells were transfected with either siNT (negative control) or siTROLL-8. 48 h after the transfection, the cells were collected and washed 2-3 times with ice-cold PBS. To analyze global metabolite abundances regulated by TROLL-8, an aliquot of the internal standard mixture was added into siNT and siTROLL-8 cell samples for untargeted metabolomics analysis. The internal standards were obtained from Cambridge Isotope Labs and include the following labelled compounds: Glucose (2,3,4,5,6-^13C5), D-Glucose-6-phosphate (U-^13C6), D-Fructose-1,6-bisphosphate (U-^13C6), L-Serine (^13C3), Glycine (1,2-^13C2), L-Cysteine (3,3-D2), Phosphoenol Pyruvate (2,3-^13C2), Lactate (3,3,3-D3), Pyruvate (D3), Acetyl-1,2-^13C2 CoA, Citric Acid (2,2,4,4-D4), Alpha-Ketoglutaric Acid (1,2,3,4-^13C4), Succinic Acid (D4), Fumaric Acid (D4), DL-Malic Acid (2,3,3-D3), D-Fructose-6-phosphate (U-^13C6). 1 ml of precooled 80% methanol extraction solvent (kept in the −80° C. freezer at least 1 h prior to extraction) was added to the sample for protein precipitation. After addition of the extraction solvent, the samples were vortexed and centrifuged at 18,800×g (Microfuge 22R, Beckman Coulter) at 0° C. for 10 min. Then, the samples were incubated for 30 min in a −80° C. freezer to increase metabolite extraction. After incubation, the samples were immediately centrifuged at 18,800×g at 4° C. for 10 min. Then the supernatant was transferred to a new microcentrifuge tube for drying in SpeedVac vacuum concentrator (Thermo Fisher Scientific). The protein pellet was resolubilized using aqueous 20 mM HEPES with 8M urea for Bradford Assay to measure the protein concentration. Dried metabolites were re-dissolved in 20 μl aqueous 80% methanol. Ultra-high performance liquid chromatography-high resolution mass spectrometry (UHPLC-HRMS) was performed using a Vanquish UHPLC interfaced with a Q Exactive HF quadrupole-orbital ion trap mass spectrometer (Thermo, San Jose, CA). Chromatographic separation was performed using a SeQuant ZIC-pHILIC guard column (2.1 mm ID×20 mm length, 5 μm particle size) and a SeQuant ZIC-pHILIC LC column (2.1 mm ID×150 mm length, 5 μm particle size, MilliporeSigma, Burlington, MA). Mobile phase A was aqueous 10 mM ammonium carbonate and 0.05% ammonium hydroxide, and mobile phase B was 100% acetonitrile. The gradient program included the following steps: start at 80% B, a linear gradient from 80 to 20% B over 13 min, stay at 20% B for 2 min, return to 80% B in 0.1 min, and re-equilibration for 4.9 min for a total run time of 20 min. The flow rate was set to 0.250 ml/min. The autosampler was cooled to 5° C. and the column temperature was set to 30° C. Sample injection volume was 2 μl for both positive ion mode and negative ion mode electrospray ionization. Full MS was performed in positive and negative mode separately detecting ions from m/z 65 to m/z 900. MZmine software, version 3.39, was used to identify and quantify metabolites by matching by m/z and RT to an in-house library. Data normalization was carried out using the protein concentration. For acetyl-CoA detection, spike heavily labelled internal standards (3 labelled Acyl CoAs) into each sample. For fatty acyl-carnitine detection, spike heavily labelled internal standards (3 labelled Acyl Carnitine) into each sample. An aliquot (300 μl) of cold 80% methanol extraction solvent (leave in −80° C. at least one hour prior to the experiments) is added to the sample for protein precipitation. After vortexing, the samples are then incubated in the −80° C. freezer for 30 mins, followed by centrifugation at 18,800×g (Microfuge 22R, Beckman Coulter) at 0° C. for 10 mins. Then the supernatant is transferred to new Eppendorf tubes for drying in SpeedVac vacuum concentrator (Thermo Fisher Scientific). The protein pellet is left behind and proceeds for protein concentration measurement by Bradford Assay. […]

Setting [3] is: CA1D cells with shCPT1A and CPT1A WT/KQ/KR overexpression, mutants compared to CPT1A overexpression.

On to `N#C/C(=C\c1cn(-c2ccccc2)c2ccccc12)C(=O)O` [UK5099], for which, in test [1], the “impact of fuel oxidation inhibitor in basal respiration upon TROLL-8 depletion” value is on record as “increased the impact”.
For the compound `CCOC(=O)[C@@]1(CCCCCCOc2ccc(Cl)cc2)CO1` [Etomoxir], in test [2] (setting [3]), the fatty acylcarnitine level entry is reported as “reduced” and the free carnitine level entry is “augmented”. For the same compound, in test [2] (CA1D cells, 10 μM Etomoxir), the “long-chain fatty acylcarnitine levels” value is given as “significantly reduced”, the “medium-chain fatty acylcarnitine levels” value is given as “significantly reduced” and the “short-chain fatty acylcarnitine levels” value was “significantly reduced”. For the same compound, in test [2] (CA1D cells, siNT, siTROLL-8, siNT+Eto, 10 μM Etomoxir), the “level of carnitine (substrate for CPT1A activity)” value is reported as “increased”. The “impact of fuel oxidation inhibitor in basal respiration upon TROLL-8 depletion” value in test [1] is given as “increased the impact”.
